We go through one compound from publication PMC4450870 (Pain, 2015).

Format in all cases: cell-based
Assay [1] deals with KCNQ2 (Rattus norvegicus, UniProt O88943). Put plainly: whole-cell voltage clamp, CHO cells.
In assay [2] the target is KCNQ2 (Rattus norvegicus, UniProt O88943, R198A). Nature of the assay: whole-cell voltage clamp, CHO cells.
The next assay addresses KCNQ2/KCNQ3 (Rattus norvegicus, UniProt O88943+O88944). Nature of the assay: whole-cell patch clamp, transfected CHO cells. Conditions: activator, −10 mV test potential, room temperature, bath pH 7.4. On the technique in general: In patch-clamp work, channel activity is measured electrically.

Sequence of KCNQ2 (Rattus norvegicus, UniProt O88943, R198A) (O88943 whole entry R198A): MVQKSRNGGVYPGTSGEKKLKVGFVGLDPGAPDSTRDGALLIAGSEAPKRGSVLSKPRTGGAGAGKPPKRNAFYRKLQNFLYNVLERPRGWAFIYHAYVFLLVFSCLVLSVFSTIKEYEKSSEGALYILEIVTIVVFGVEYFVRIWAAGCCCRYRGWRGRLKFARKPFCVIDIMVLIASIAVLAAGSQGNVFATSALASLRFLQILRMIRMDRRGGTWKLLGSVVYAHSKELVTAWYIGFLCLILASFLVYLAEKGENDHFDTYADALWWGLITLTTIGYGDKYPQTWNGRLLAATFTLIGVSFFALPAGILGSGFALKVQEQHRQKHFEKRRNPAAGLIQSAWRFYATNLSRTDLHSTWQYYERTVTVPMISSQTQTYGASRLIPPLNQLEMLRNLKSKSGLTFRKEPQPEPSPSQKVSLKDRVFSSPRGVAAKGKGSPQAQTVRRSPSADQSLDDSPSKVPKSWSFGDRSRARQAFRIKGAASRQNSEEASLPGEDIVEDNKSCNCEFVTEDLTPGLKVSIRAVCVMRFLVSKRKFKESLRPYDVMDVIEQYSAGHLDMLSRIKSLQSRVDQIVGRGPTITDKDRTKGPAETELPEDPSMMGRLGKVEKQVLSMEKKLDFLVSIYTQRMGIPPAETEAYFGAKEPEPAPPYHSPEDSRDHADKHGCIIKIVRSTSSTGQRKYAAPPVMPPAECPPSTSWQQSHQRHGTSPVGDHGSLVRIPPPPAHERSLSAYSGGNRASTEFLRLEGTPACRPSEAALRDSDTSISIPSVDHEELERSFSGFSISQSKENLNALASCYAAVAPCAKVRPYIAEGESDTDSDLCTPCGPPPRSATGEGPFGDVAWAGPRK
Sequence of KCNQ2 (Rattus norvegicus, UniProt O88943) (O88943 whole entry): as the sequence (O88943 whole entry R198A) above, with A198R counted along it
Sequence of KCNQ2/KCNQ3 (O88943 whole entry): as the sequence (O88943 whole entry R198A) above, with A198R counted along it
Sequence of KCNQ2/KCNQ3 (O88944 whole entry): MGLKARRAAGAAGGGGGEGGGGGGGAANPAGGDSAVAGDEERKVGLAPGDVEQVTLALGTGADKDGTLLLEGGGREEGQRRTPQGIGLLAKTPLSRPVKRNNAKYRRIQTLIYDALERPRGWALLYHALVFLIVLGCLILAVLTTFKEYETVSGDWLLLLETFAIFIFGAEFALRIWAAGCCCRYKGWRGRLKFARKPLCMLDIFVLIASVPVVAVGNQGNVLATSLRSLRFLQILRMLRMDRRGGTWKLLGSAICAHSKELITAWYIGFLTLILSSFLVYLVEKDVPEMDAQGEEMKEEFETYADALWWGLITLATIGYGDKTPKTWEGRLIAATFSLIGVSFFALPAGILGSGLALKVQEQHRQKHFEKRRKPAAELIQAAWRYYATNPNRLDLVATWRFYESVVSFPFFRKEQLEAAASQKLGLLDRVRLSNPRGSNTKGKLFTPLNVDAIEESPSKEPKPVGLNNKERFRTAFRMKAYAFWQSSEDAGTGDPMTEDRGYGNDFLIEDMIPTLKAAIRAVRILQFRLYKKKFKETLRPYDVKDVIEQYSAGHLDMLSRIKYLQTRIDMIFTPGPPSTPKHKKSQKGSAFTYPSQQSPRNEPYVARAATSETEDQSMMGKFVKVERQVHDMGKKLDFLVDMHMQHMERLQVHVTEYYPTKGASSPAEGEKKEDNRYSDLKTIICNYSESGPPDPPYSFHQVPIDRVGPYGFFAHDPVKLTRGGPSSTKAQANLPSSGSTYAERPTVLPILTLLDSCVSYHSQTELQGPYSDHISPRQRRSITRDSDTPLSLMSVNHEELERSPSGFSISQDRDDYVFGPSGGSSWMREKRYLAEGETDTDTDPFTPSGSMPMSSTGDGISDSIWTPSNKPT

On to `CCc1oc2ccccc2c1C(=O)c1cc(Br)c(O)c(Br)c1` [benzbromarone], for which the results for the EC50 at KCNQ2 [1] and on KCNQ2 [2] were 4.32 ± 1.4 µM and 28.2 ± 1.32 µM, respectively. Moreover, the “fold increase of outward current at 10 μM” value at KCNQ2/KCNQ3 is reported as ~ 1.64 ± 0.08 fold.

A word on the EC50: it is the concentration that produces a half-maximal response.
